Oligonucleotides are written 5' to 3', each unit as a sugar letter and its base; * is a phosphorothioate linkage, no mark a phosphodiester; rarer units and linkages stand in square brackets, end groups in braces. Plain capitals give the bases only. d = 2'-deoxy (DNA)
What was measured:
[1] = enema, 10 to 12 hours post-administration; about two thirds N-acetyl metabolite; cited from earlier work
[2] = tested on: chronic, unremitting pouchitis; details: HPMC enema 240 mg nightly for 6 weeks, twelve patients (p=0.001); cited from earlier work
[3] = tested on: moderate to severe ulcerative colitis; assay: Subset analysis of patients with moderate to severe disease; assay type: in vivo, human; details: moderate to severe subset (n=26)
Method: An analysis of a subset of the population (n=26) of the study with moderate to severe disease was performed. Moderate to severe disease was defined as patients having the following scores using the DAI criteria: baseline stool frequency ≧2, rectal bleeding ≧2, endoscopy ≧2, and investigator's assessment ≧1.

[4] = human, in vivo, iv
Method: This was a double-blind, placebo-controlled, randomized (3:1, drug: placebo) study. Four healthy male volunteers were enrolled in each of seven single dose (0.06, 0.12, 0.24, 0.5, 1.0, 1.5 and 2.0 mg/kg) and multiple dose groups (0.2, 0.5, 1.0 and 2.0 mg/kg every other day for four doses). Groups were studied in a rising-dose fashion, and multiple dosing commenced after the first five single groups had completed the trial. […] Subjects remained recumbent, with continuous ECG monitoring for four hours after the beginning of each infusion. Before and at intervals after each infusion, supine blood pressure and pulse, clotting screen including aPTT, thrombin time, prothrombin time, serum complement split products C3a and C5a, neutrophil count, urine microproteins, and standard laboratory safety screen (hematology, blood biochemistry and urinalysis) were measured.
Complement split products were measured by commercially available C3a and C5a assay kits (Amersham).
Drug analysis was performed by capillary gel electrophoresis (CGE) as described by Leeds et al. (Anal. Biochem., 235:36-43, 1996). A phosphorothioate standard oligonucleotide composed of 27 thymidine nucleotides (T27) was added to both plasma and urine as an internal standard. The linear range of concentrations of oligonucleotides detectable in plasma using this method was 10 nM to 20 μM (approximately 0.07 to 140 μg/ml).

[5] = human, in vivo, sc
[6] = in vivo
Method: A population of 15 patients with mild to moderate active left sided ulcerative colitis (DIA 3-10) with mucosal friability were studied.
Patients were given 240 mg of ISIS 2302 enema nightly for six weeks. Endoscopic mucosal biopsy samples were taken at baseline and at the end of therapy. Intensive 24-hour plasma pharmacokinetic (PK) sampling was conducted on all patients after the first and last enema dose for quantitative drug analysis. End of treatment colonic biopsy samples were collected for local quantitative PK evaluation from the descending colon.
PK and clinical data from the first 12 patients were analyzed.

[7] = tested on: mild to moderate active distal ulcerative colitis
Method: The safety and efficacy of four different dosing regimens of ISIS 2302 enema was assessed for the treatment of ulcerative colitis were analyzed in a placebo-controlled, double-blinded Phase 2 study.
Patients were equally randomized into one of five study arms.
240 mg ISIS 2302 nightly for six weeks.
240 mg ISIS 2302 for 10 consecutive nights followed by 240 mg ISIS 2302 every other night for remaining 32 nights.
240 mg of ISIS 2302 every other night for six weeks.
120 mg of ISIS 2302 for 10 consecutive nights followed by 120 mg of ISIS 2302 every other night for the remaining 32 nights.
Placebo enema nightly for six weeks.
All patients received either a placebo enema or ISIS 2302 enema nightly for six weeks. Patients in arms 2 and 4 received placebo enemas on alternate nights when ISIS 2302 was administered on alternate days.

[8] = tested on: mild to moderate active left sided ulcerative colitis; assay: Open label study CS-28: pharmacological activity of ISIS 2302 enema; assay type: in vivo, human; details: 240 mg enema nightly for six weeks
Text: All patients entering the study had moderate to severe mucosal disease at baseline (modified Mayo score, endoscopic appearance component of DAI, of 2 or greater at baseline). […] This was substantially higher than expected.

[9] = tested on: mild to moderate ulcerative colitis; details: 240 mg/day rectally for 28 days; placebo 50%; cited from earlier work
[10] = tested on: Crohn's disease; details: intravenous, cited from earlier work

Compound | plasma levels [1] [ng/mL] | primary endpoint of reduction of PDAI at week 6 [2] | change in DAI vs baseline and placebo ([3]; every other night dosing, through week 6) | change in DAI vs baseline and placebo ([3]; nightly dosing, through week 18) | n-1, n-2 and n-3 metabolites as share of total oligonucleotide in plasma [4] [%] | plasma bioavailability [5] | Maximum plasma concentrations (Cmax) ([6]; human, 240 mg) [ng/mL] | Mean AUC ([6]; human, 240 mg) [µg·h/mL] | systemically available share of the administered dose [6] | subjects remaining in remission at week 30 of those in remission after 6 weeks ([7]; 240 mg group, placebo 4 of 9 (p=0.12)) | median duration of response ([7]; 240 mg group, placebo <3 months) [months] | response rate vs placebo ([7]; 240 mg nightly, weeks 18 and 30 (p=0.04 and 0.03)) | stool frequency and rectal bleeding (components of DAI) ([7]; ISIS 2302 enema treatment) | response vs placebo ([7]; the 3 lower dose groups) | patients with DAI significantly improved from baseline to week 6 [8] | patients with mucosal healing and resolution of friability (modified Mayo score of 0 or 1) ([8]; at completion of the study) | patients requiring additional surgical or medical intervention over baseline during six months [9] | efficacy in Phase II studies ([10]; some subsets of patients) | efficacy on clinical remission and disease activity index scores ([10]; two Phase III trials, moderate to severe Crohn's disease)
Nc1ccc(O)c(C(=O)O)c1 [mesalamine] | 2000 |  |  |  |  |  |  |  |  |  |  |  |  |  |  |  |  |  | 
ISIS 2302: 20-base phosphorothioate oligodeoxynucleotide 5′-GCCCAAGCTGGCATCCGTCA-3′ hybridizing to the 3′-untranslated region of human ICAM-1 mRNA (antisense dG*dC*dC*dC*dA*dA*dG*dC*dT*dG*dG*dC*dA*dT*dC*dC*dG*dT*dC*dA) |  | reached | significant (p≦0.05) decrease in DAI | significant (p≦0.05) decrease in DAI | 20 | about 50% | 2.2 to 38 | 0.124 | less than 1% | 10 of 13 | ≥ 6 | significantly better response rate than placebo | durable reduction | failed to demonstrate statistical improvement over placebo | 9 of 12 | Seven of 12 | None | suggested efficacy | ineffective
